Article PMC6013247, “Preclinical characterization of INCB053914, a novel pan-PIM kinase inhibitor, alone and in combination with anticancer agents, in models of hematologic malignancies” (PLoS ONE, 2018)

Key:
RSK2 = RSK2 (Homo sapiens, UniProt P51812); experiment: Kinase selectivity panel; assay type: biochemical
CAMK2D = CAMK2D (Homo sapiens, UniProt Q13557); experiment: Kinase selectivity panel; assay type: biochemical; conditions: [ATP] = 1 mM
CDK2 = CDK2 (Homo sapiens, UniProt P24941); experiment: Kinase selectivity panel; assay type: biochemical; conditions: [ATP] = 1 mM
HIPK3 = HIPK3 (Homo sapiens, UniProt Q9H422); experiment: Kinase selectivity panel; assay type: biochemical; conditions: [ATP] = 1 mM
Sequence of HIPK3 (Q9H422 whole entry): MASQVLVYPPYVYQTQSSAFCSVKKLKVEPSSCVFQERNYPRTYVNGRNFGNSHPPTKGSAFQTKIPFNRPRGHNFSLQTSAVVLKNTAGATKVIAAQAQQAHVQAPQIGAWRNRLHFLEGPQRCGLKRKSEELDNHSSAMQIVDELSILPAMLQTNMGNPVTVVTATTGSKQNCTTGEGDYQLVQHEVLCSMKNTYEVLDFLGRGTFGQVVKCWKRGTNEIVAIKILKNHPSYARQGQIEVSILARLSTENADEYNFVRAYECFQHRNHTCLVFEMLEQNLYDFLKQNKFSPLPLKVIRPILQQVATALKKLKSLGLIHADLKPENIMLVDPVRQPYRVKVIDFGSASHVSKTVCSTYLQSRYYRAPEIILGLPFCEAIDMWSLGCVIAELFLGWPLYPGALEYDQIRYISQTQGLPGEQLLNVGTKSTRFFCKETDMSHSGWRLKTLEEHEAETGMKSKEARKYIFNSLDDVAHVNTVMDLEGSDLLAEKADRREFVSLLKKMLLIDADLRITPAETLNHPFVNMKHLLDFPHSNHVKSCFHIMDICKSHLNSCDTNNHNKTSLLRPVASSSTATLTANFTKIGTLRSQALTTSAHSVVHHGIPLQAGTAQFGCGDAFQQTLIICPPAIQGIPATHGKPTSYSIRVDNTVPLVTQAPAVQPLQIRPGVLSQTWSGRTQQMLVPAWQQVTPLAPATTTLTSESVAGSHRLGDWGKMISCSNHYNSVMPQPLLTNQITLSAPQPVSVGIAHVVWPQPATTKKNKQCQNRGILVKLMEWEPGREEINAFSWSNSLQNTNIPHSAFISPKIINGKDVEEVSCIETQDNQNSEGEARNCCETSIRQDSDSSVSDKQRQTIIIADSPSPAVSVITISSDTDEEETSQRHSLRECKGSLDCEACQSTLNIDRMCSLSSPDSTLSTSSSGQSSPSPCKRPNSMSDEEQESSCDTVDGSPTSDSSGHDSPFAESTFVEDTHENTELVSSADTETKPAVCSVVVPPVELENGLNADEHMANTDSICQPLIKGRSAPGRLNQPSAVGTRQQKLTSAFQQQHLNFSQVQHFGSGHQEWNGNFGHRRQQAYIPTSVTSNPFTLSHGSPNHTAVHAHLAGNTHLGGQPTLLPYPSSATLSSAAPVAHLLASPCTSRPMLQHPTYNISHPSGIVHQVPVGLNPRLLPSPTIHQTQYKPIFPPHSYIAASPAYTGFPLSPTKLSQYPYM

IKKA = IKKA (Homo sapiens, UniProt O15111); experiment: Kinase selectivity panel; assay type: biochemical; conditions: [ATP] = 1 mM
Sequence of IKKA (O15111 whole entry): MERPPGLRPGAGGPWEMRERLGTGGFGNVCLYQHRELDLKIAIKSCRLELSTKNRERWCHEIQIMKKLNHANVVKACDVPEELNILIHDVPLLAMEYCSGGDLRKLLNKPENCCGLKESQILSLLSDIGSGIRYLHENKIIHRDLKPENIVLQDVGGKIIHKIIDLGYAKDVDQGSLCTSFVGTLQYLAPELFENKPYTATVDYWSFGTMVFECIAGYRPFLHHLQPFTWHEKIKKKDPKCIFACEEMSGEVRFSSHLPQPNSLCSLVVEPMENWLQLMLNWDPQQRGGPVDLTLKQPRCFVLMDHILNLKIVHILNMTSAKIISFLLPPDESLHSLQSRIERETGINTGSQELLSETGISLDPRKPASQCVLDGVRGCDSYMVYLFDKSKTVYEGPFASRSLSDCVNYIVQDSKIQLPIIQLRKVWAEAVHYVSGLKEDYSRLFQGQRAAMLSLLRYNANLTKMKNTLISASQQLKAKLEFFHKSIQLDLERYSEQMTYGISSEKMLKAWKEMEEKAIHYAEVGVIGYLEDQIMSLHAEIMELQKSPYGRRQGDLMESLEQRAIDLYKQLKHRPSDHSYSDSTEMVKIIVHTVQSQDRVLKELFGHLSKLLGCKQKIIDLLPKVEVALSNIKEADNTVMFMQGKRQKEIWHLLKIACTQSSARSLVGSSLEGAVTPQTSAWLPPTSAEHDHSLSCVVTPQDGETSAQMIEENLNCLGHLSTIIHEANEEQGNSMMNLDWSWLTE

PHKG2 = PHKG2 (Homo sapiens, UniProt P15735); experiment: Kinase selectivity panel; assay type: biochemical; conditions: [ATP] = 1 mM
Sequence of PHKG2 (P15735 whole entry): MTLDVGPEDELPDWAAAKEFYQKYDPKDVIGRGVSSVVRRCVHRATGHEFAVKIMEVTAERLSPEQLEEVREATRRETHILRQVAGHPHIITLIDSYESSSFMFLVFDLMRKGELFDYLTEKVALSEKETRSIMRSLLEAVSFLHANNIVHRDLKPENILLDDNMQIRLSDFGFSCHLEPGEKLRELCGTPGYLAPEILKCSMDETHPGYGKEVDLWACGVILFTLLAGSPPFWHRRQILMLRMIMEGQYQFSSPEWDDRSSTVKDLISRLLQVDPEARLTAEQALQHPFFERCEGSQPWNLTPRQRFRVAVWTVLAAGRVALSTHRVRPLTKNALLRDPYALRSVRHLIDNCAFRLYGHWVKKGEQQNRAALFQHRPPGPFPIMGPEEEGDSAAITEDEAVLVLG

PKCD = PKCD (Homo sapiens, UniProt Q05655); experiment: Kinase selectivity panel; assay type: biochemical; conditions: [ATP] = 1 mM
Sequence of PKCD (Q05655 whole entry): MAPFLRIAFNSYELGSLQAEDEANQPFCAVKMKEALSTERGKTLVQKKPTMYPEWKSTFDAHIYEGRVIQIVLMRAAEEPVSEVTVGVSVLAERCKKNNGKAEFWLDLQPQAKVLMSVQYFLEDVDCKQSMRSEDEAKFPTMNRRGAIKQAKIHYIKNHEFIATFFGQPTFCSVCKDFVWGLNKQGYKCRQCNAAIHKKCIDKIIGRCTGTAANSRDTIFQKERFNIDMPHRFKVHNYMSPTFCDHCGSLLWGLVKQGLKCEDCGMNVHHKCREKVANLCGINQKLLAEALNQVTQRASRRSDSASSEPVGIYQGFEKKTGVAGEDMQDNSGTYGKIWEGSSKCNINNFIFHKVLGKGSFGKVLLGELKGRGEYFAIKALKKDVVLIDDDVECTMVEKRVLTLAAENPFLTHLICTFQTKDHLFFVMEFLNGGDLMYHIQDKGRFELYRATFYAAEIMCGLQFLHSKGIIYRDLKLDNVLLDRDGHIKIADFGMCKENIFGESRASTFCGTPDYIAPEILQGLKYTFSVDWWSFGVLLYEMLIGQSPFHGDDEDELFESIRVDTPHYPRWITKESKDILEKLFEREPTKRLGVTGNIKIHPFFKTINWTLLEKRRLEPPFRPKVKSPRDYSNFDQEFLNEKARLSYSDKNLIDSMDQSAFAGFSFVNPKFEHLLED

SYK = SYK (Homo sapiens, UniProt P43405); experiment: Kinase selectivity panel; assay type: biochemical; conditions: [ATP] = 1 mM
panel of 192 kinases = experiment: Broader panel of 192 kinases (PerkinElmer); assay type: biochemical; conditions: INCB053914 100 nM; results not shown
NOMO1 = experiment: Cell proliferation assay ([3H]-thymidine); assay type: cell-based; conditions: NOMO1 (AML)
Experimental: (§1) The antiproliferative effects of INCB053914 on hematologic tumor cells were investigated using assays described in the Supporting Information (S2 File).
(§2) Cell proliferation assays. […] After 3 to 4 days, [^3H]-thymidine (1 μCi/well) (PerkinElmer) in PBS (10 μl) was added to the cell culture for an additional 12 hours. The incorporated radioactivity was separated by filtration with water through GF/B filters (Packard Bioscience, Meriden, Connecticut) and measured by liquid scintillation counting with a TopCount (Packard Bioscience).

SKM-1 = experiment: Cell proliferation assay ([3H]-thymidine); assay type: cell-based; conditions: Homo sapiens; SKM-1 (AML); read-out: Mean (± SD) GI50
Experimental: as §1, §2

MM cell lines = experiment: Cell proliferation assay, all MM cell lines tested; assay type: cell-based; conditions: read-out: mean GI50 values, range over all MM cell lines tested
Experimental: as §1, §2

[1] = system: primary bone marrow blasts from patients with AML; experiment: Ex vivo treatment of primary bone marrow blasts from patients with AML (Western blot); assay type: cell-based, human
Experimental: The effects of INCB053914 on pBAD, pp70S6K, and p4E-BP1 levels and on the expression of PIM isozymes also were assessed ex vivo in primary bone marrow blasts (Stem Cell and Xenograft Core, University of Pennsylvania, Philadelphia, Pennsylvania) or in peripheral blood mononuclear cells (PBMCs) derived from whole blood samples obtained with informed written consent from adult patients with AML enrolled in an ongoing phase 1/2 dose-escalation trial, which was conducted in accordance with the study protocol approved by the respective institutional review boards or independent ethics committees. Only samples initially containing >90% viable cells were used (assessed by Trypan Blue staining). Immediately after thawing, the blasts were cultured in RPMI + 10% FBS with INCB053914 for 2 hours at 37°C, before lysis. For determinations of PIM2 expression in PBMCs, whole blood samples were treated overnight with increasing concentrations of INCB053914; total PBMCs were isolated by Ficoll-Paque density gradient centrifugation before lysis. The levels of PIM isozymes and phosphoproteins in cell lysates were detected by Western blotting using the same primary antibodies as above.

[2] = system: PIM2 expression and 4E-BP1 phosphorylation in whole blood samples; experiment: Pharmacodynamic assessment of blood samples from patients with AML in the phase 1/2 trial; assay type: in vivo, human; conditions: patients with AML receiving INCB053914 100 mg twice a day; blood 0 to 6 hours post-dose
[3] = system: BAD phosphorylation in whole blood spiked with MOLM-16 cells; experiment: BAD phosphorylation in whole blood samples spiked with tumor cells, treated ex vivo; assay type: cell-based; conditions: MOLM16
MOLM-16 (AML) xenografts = experiment: Tumor growth in MOLM-16 (AML) xenograft; assay type: in vivo, mouse
Experimental: (§3) Female immune compromised (severe combined immunodeficiency [SCID]) mice (5–9 weeks of age; Charles River Laboratories, Wilmington, Massachusetts) were inoculated with MOLM-16, KG-1, or KMS-12-BM cells. A cell suspension in Dulbecco’s phosphate-buffered saline (DPBS) (1 × 10^8 cells/ml) was mixed 1:1 (v/v) with matrigel, and 200 μl was injected subcutaneously into the flank of each mouse. Studies of INCB053914 combination regimens used xenograft models derived from INA-6 (MM) cells or Pfeiffer (DLBCL) cells. INA-6 tumor fragments were injected subcutaneously as brei (100 μl in Hank’s balanced salt solution [HBSS, 1:10 v/v]) into the flank of each mouse; Pfeiffer tumor fragments (1 cm × 1 cm) were directly implanted. The treatment of tumor-bearing mice started 7 to 24 days after tumor inoculation for efficacy studies and approximately 14 to 27 days after tumor inoculation for pharmacodynamic studies.
For efficacy studies, mice were sorted to obtain approximately equivalent mean tumor volumes in each group. The starting mean tumor volume in efficacy studies for all groups ranged from 158 mm^3 to 249 mm^3, and groups consisted of eight or nine animals. The mean tumor volume in pharmacodynamic studies for all groups ranged from 114 mm^3 to 833 mm^3, and groups consisted of three to eight animals. […]
(§4) Tumor volume was calculated in two dimensions using the equation: volume = [length × (width^2)] / 2, where the larger number was length and the smaller number was width. Effects on tumor growth were reported as percent tumor growth inhibition calculated as (1 − [treatment volume / control volume]) × 100, where control volume was the vehicle/untreated tumor volume on a given day and treatment volume was any treatment group tumor volume on that same day. Statistical significance of differences between treatment and vehicle controls was assessed using analysis of variance single factor test.

[4] = system: KMS-12-BM (MM) xenografts; experiment: Tumor growth in KMS-12-BM (MM) xenograft; assay type: in vivo, mouse; conditions: KMS-12-BM tumors
Experimental: as §3
For efficacy studies, mice were sorted to obtain approximately equivalent mean tumor volumes in each group. The starting mean tumor volume in efficacy studies for all groups ranged from 158 mm^3 to 249 mm^3, and groups consisted of eight or nine animals. The mean tumor volume in pharmacodynamic studies for all groups ranged from 114 mm^3 to 833 mm^3, and groups consisted of three to eight animals. INCB053914 was administered by oral gavage twice a day for 7 to 19 days (suspension in 5% dimethylacetamide with 0.5% w/v methylcellulose [Sigma-Aldrich]) or by subcutaneous continuous infusion (Alzet osmotic pumps; flow rate 0.5 μl/h for efficacy studies and 1.0 μl/h for pharmacodynamic studies).
For the evaluation of the effects of INCB053914 on tumor growth, tumor-bearing mice (MOLM-16 xenograft, eight mice/group; KMS-12-BM xenograft, nine mice/group) were dosed orally twice a day with INCB053914 at doses ranging from 0 (vehicle) to 100 mg/kg for 15 days.
as §4

Sequence of RSK2 (P51812 whole entry): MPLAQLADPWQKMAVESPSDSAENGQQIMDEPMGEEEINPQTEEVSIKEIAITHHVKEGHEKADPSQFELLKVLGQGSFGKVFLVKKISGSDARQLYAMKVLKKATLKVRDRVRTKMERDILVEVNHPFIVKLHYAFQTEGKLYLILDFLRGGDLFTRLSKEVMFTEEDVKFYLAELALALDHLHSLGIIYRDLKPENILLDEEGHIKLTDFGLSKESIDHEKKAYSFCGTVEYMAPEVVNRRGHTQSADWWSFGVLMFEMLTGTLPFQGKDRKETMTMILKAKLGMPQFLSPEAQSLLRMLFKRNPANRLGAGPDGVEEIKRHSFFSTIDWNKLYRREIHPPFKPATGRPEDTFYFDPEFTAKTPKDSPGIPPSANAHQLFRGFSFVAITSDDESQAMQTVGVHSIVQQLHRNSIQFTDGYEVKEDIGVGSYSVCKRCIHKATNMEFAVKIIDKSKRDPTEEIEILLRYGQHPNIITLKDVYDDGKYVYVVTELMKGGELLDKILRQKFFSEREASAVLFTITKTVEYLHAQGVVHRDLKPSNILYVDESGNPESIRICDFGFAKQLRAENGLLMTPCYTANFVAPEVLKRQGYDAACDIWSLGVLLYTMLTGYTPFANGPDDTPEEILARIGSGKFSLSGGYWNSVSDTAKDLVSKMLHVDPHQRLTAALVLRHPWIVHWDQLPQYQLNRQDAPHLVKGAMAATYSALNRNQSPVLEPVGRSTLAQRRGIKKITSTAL
Sequence of CAMK2D (Q13557 whole entry): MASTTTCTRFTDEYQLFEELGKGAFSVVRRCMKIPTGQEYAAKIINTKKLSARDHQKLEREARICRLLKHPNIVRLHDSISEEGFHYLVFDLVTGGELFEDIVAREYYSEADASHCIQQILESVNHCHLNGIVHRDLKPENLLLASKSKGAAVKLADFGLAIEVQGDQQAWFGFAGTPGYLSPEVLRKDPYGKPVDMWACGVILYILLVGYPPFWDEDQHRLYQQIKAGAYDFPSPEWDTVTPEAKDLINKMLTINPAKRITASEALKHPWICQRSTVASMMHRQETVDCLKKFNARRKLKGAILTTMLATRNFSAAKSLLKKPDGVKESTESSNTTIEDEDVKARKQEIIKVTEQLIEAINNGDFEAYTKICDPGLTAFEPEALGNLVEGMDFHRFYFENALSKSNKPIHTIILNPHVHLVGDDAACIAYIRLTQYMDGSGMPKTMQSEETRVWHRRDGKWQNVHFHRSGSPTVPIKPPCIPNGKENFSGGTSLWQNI

C[C@H]1CN(c2c(NC(=O)c3ccc(F)c(-c4c(F)cccc4F)n3)cnc3c2CC[C@H]3O)C[C@@H](N)[C@@H]1O.O=P(O)(O)O [INCB053914, N-((R)-4-((3R,4R,5S)-3-amino-4-hydroxy-5-methylpiperidin-1-yl)-7-hydroxy-6,7-dihydro-5H-cyclopenta[b]pyridin-3-yl)-6-(2,6-difluorophenyl)-5-fluoropicolinamide phosphate]
IC50 (RSK2; [ATP] = 1 mM): 7.12 µM
IC50 (RSK2; as given in the text): 7.1 µM
IC50 (CAMK2D): > 20 µM
IC50 (CDK2): > 20 µM
IC50 (HIPK3): > 20 µM
IC50 (IKKA): > 20 µM
IC50 (PHKG2): > 20 µM
IC50 (PKCD): > 20 µM
IC50 (SYK): > 20 µM
kinases significantly inhibited in the panel of 192 kinases (panel of 192 kinases): no kinase other than Per-Arnt-Sim (PAS) kinase was significantly inhibited
GI50 (NOMO1; Homo sapiens, NOMO-1, read-out: Mean (± SD) GI50): 0.0359 ± 0.0093 µM
Mean (SD) maximum inhibition (NOMO1): 84.6 ± 4.0%
GI50 (SKM-1): > 3 µM
GI50 (MM cell lines): 0.0132 to 0.23 µM
patients whose blasts showed decreases in BAD phosphorylation [1]: two of four patients
PIM2 expression ([1]; 2 hours): increased PIM2 expression
phosphorylation of p70S6K and 4E-BP1 ([1]; 2 hours): decreased phosphorylation of p70S6K and 4E-BP1
4E-BP1 phosphorylation [2]: a decrease in 4E-BP1 phosphorylation
PIM2 expression levels [2]: an increase in PIM2 expression levels
IC50 [3]: 0.076 µM
lowest dose at which tumor growth inhibition was apparent (MOLM-16 (AML) xenografts; MOLM-16 model): 1 mg/kg
maximal tumor growth inhibition (MOLM-16 (AML) xenografts; MOLM-16 tumors, 30 mg/kg twice a day orally): 96%
mice with a partial regression (PR) (MOLM-16 (AML) xenografts; MOLM-16 tumors, 30 mg/kg twice a day, PR = ≥50% decrease in tumor volume vs treatment start, eight mice/group, 30 mg/kg): six of eight
tumor growth inhibition ([4]; 25 mg/kg twice a day): 43%
tumor growth inhibition ([4]; 50 mg/kg twice a day): 71%
tumor growth inhibition ([4]; 75 mg/kg twice a day): 77%
tumor growth inhibition ([4]; 100 mg/kg twice a day): 88%
